As usually defined, the inhibition is the drop in the measured response relative to a control, in per cent.

The structures appear in SMILES notation. Where a name gives a salt, the structure may show the parent alone. Read-outs that look alike come from different tables or passages of the source.

Data on 22 molecules can be found in patent publication US4897391A, “Tricyclic anti-allergy, antiinflammatory and anti-hyperproliferative compounds” (Schering Corporation, priority 1988, dated 1990).

The target in one assay is T1, 5-lipoxygenase (Mus musculus, UniProt P48999).
T1 construct: Preincubate MC-9 cells (0.39 ml at 7.5×10^6 cells/ml) without or with test compound; endogenous in cells; host or cells: MC-9 murine mast cell clone (interleukin-3-dependent)
T1 sequence (P48999 1-674): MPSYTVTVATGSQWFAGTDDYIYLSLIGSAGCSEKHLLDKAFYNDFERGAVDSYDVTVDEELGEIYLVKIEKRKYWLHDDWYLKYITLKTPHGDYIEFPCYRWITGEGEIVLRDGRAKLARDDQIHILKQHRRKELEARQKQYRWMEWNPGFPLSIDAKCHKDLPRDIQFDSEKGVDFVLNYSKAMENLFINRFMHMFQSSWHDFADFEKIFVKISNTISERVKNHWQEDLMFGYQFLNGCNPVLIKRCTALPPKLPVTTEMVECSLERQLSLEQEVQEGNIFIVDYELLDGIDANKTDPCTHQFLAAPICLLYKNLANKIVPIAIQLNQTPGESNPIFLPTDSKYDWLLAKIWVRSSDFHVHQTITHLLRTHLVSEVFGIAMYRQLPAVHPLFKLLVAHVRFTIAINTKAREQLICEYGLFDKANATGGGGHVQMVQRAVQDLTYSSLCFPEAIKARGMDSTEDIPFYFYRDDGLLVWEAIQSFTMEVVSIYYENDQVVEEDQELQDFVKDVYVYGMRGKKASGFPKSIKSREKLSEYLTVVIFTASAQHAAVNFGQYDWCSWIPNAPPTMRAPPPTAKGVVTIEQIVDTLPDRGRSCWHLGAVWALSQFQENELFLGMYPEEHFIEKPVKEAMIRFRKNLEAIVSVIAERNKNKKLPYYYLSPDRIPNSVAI
Briefly: 5-Lipoxygenase Assay (MC-9 mast cells, 5-HETE and LTC4 production). As to conditions: for inhibition at 3.12 µM: MC9, 3.12 μM dose; for inhibition at 6.25 µM: MC9, 6.25 μM dose; for inhibition at 12.5 µM: MC9, 12.5 μM dose; for inhibition at 25 µM: MC9, 25 μM dose. It counts as cell-based, murine. On the procedure: Preincubate MC-9 cells (0.39 ml at 7.5×10^6 cells/ml) without or with test compound dissolved in dimethylsulfoxide (DMSO) vehicle (to a final volume 1 μl) for 4 minutes then incubate for 5 minutes with [^14 C]arachidonic acid (Amersham, 59 Ci/mole) at a 9 μM final concentration, and A23187 (Calbiochem) at a 1 μM final concentration in 10 μl of water:ethanol (9:1). Stop the reaction by addition of methanol (0.4 ml), and remove cellular debris by centrifugation. Run aliquots (250 μl) of the incubations on a Waters two-pump HPLC system fitted with a Waters radial compression column (C18, 10 micron, 8×100 mm, micro-Bondapak) and C18 "Guard Pak". Initially elute the column at 3 ml/min with water:methanol:acetic acid (67:33:0.08) containing 1 mM EDTA adjusted to pH 6.0 with ammonium hydroxide (Pump A). At 4 minutes, establish a linear gradient to reach 100% methanol (Pump B) at 9 minutes. Between 13 and 14 minutes, exchange for the initial eluting solvent and by 19 minutes the column will be reequilibrated for the next sample. Analyze the effluent by a continuous flow radioactivity monitor (model ROMONA-D) interfaced with a Hewlett Packard Lab Automation System for quantitation of radioactive products. […] Doses in table 2 are 50 μM unless otherwise noted.

Assay [1] deals with Peptidoleukotriene Release in Guinea Pig Lung. Nature of the assay: Peptidoleukotriene Release Inhibition in Lung Assay. It counts as cell-based. The following applies: Cavia porcellus; final concentration of 50 μm (so in the source); ovalbumin challenge, sensitized guinea pig lung. From the text: The anti-allergy method of this invention is identified by tests that measure inhibition of leukotriene release in sensitized guinea pigs by compounds of the invention. This procedure is as follows.
First, kill sensitized guinea pigs by a blow to the head, remove the lungs and clean them of visible connective tissue, trachea and large blood vessels. Slice the lungs from individual animals into fragments approximately 1 mm in thickness using a McIlwain tissue chopper and wash them with oxygenated Tyrode's buffer. Transfer weighed aliquots (approximately 400 mg wet weight) of lung into vials containing 2 ml of fresh Tyrode's solution (containing 10 mM cysteine) and incubate in the presence or absence of test compound for 12 minutes at 37° C., challenge the tissues with 20 μg ovalbumin/ml (final concentration) and incubate for 15 minutes. To measure leukotriene release, extract an aliquot of supernatant fluid with 4 volumes of 100% ethanol. After removal of the precipitated protein, dry the clear fluid under a stream of N2 gas. Measure the leukotriene content by a radioimmunoassay using [^3 H]LTC4 (leukotriene C4) and antiserum obtained from New England Nuclear. […] Calculate percent inhibition of leukotriene release by comparing for each lung the release in the presence of the test compound to that in the absence of test compound.

Setting [2] is: MC9, 50 μM dose, MC-9 cells, read-out: % Inhibition 5-HETE.
Where [3] appears, read: MC9, 50 μM dose, MC-9 cells, read-out: % Inhibition LTC4.
Setting [4] is: MC-9 cells, read-out: % Inhibition 5-HETE.
Where [5] appears, read: MC-9 cells, read-out: % Inhibition LTC4.

For `CC(=O)Oc1cc(OC(C)=O)c2c3c(n(C)c(=O)c2c1)CCC3`, the inhibition at 50 µM at 5-lipoxygenase (setting [2]) is 56%.

In the case of `O=c1[nH]c2c(c3c(O)cc(O)cc13)CCC2`, the inhibition at 50 µM on 5-lipoxygenase (setting [2]) came to 31%.

`O=C1c2cc(O)cc(O)c2C(O)(c2ccccc2)C2CCCCN12` (stereo not shown) [1,2,3,4,11,11a-hexahydro-8,10,11-trihydroxy-11-phenyl-6H-benzo[b]quinolizin-6-one]: the inhibition at 50 µM is 23% at 5-lipoxygenase (setting [2]) and 32% at 5-lipoxygenase (setting [3]).

Regarding `O=c1c2cc(O)cc(O)c2c(O)c2n1CCCC2` [1,2,3,4-tetrahydro-8,10,11-trihydroxy-6H-benzo[b]quinolizin-6-one], the inhibition at 50 µM in assay [1] stood at 28%; on 5-lipoxygenase (setting [2]), 18%.

In the case of `Cc1c2n(c(=O)c3cc(O)cc(O)c13)CCCC2` [1,2,3,4-tetrahydro-8,10-dihydroxy-11-methyl-6H-benzo[b]quinolizin-6-one, disodium salt], the inhibition at 50 µM in assay [1] came out at 71%; on 5-lipoxygenase (MC9, read-out: % Inhibition 5-HETE), 88%.

For the molecule `O=c1[nH]c2c(c3c(O)cc(O)cc13)CCCC2` [1,3,4,5-tetrahydro-8,10-dihydroxy-phenanthridin-6(2H)-one], the inhibition at 50 µM at 5-lipoxygenase (setting [2]) came out at 31%.

Regarding `CC(=O)Oc1cc(OC(C)=O)c2c(-c3ccccc3)c(C)n(C)c(=O)c2c1` [5,7-bis(acetyloxy)-2,3-dimethyl-4-phenyl-1(2H)-isoquinolinone], the inhibition at 50 µM in assay [1] stood at 45%; on 5-lipoxygenase (setting [2]) it was 5%.

In the case of `CC(=O)Oc1cc(OC(C)=O)c2c(-c3ccccc3)c(C)[nH]c(=O)c2c1` [5,7-bis(acetyloxy)-3-methyl-4-phenyl-1(2H)-isoquinolinone], the inhibition at 50 µM in assay [1] came to 12%; on 5-lipoxygenase (setting [2]) it was 31%; at 5-lipoxygenase (setting [3]) it was 27%.

As to `CC(=O)Oc1cc(OC(C)=O)c2c(C)c[nH]c(=O)c2c1` [5,7-bis(acetyloxy)-4-methyl-1(2H)-isoquinolinone], the inhibition at 50 µM was 43% on 5-lipoxygenase (setting [2]) and 40% at 5-lipoxygenase (setting [3]).

Take `CC(=O)Oc1cc(OC(C)=O)c2c(-c3ccccc3)c[nH]c(=O)c2c1` [5,7-bis(acetyloxy)-4-phenyl-1(2H)-isoquinolinone]: the inhibition at 50 µM at 5-lipoxygenase (setting [2]) stood at 19%; at 5-lipoxygenase (setting [3]), 16%.

Take `CC(=O)Oc1cc(OC(C)=O)c2c(-c3ccccc3)c3n(c(=O)c2c1)CCC3` [7,9-bis(acetyloxy)-2,3-dihydro-10-phenyl-6H-pyrrolo[1,2-b]isoquinolin-5(1H)-one]: the inhibition at 50 µM in assay [1] turned out to be 76%; at 5-lipoxygenase (setting [2]), 18%; at 5-lipoxygenase (setting [3]), 10%.

`CC(=O)Oc1cc(OC(C)=O)c2c(OC(C)=O)c3n(c(=O)c2c1)CCCC3` [8,10,11-tris(acetyloxy)-1,2,3,4-tetrahydro-6H-benzo[b]quinolizin-6-one]: the inhibition at 50 µM worked out at 39% in assay [1] and 2% at 5-lipoxygenase (setting [2]).

With `Cc1c2n(c(=O)c3cc(OC(=O)C(C)(C)C)cc(OC(=O)C(C)(C)C)c13)CCCC2` [8,10-bis(2,2-dimethyl-1-oxopropoxy)-11-methyl-1,3,4,6-tetrahydro-6H-benzo[b]quinolizin-6-one], the inhibition at 50 µM was determined as 5% in assay [1] and 45% at 5-lipoxygenase (setting [2]).

Consider `CC(=O)Oc1cc(OC(C)=O)c2c(-c3ccccc3)c3n(c(=O)c2c1)CCCC3` [8,10-bis(acetyloxy)-1,2,3,4,-tetrahydro-11-phenyl-6H-benzo[b]quinolizin-6-one], for which the inhibition at 50 µM is 66% in assay [1] and 21% at 5-lipoxygenase (setting [2]).

For the molecule `CC(=O)Oc1cc(OC(C)=O)c2c3c([nH]c(=O)c2c1)CCCC3` [8,10-bis(acetyloxy)-1,3,4,5,6-tetrahydro-6(2H)-phenanthridinone], the inhibition at 50 µM in assay [1] came out at 36%; on 5-lipoxygenase (setting [2]) it was 56%; at 5-lipoxygenase (setting [3]) it was 41%.

As for `Cc1c2n(c(=O)c3cc(OC(=O)CN)cc(OC(=O)CN)c13)CCCC2` [8,10-bis[(aminoacetyl)oxy]-11-methyl-1,2,3,4-tetrahydro-6H-benzo[b]quinolizine-6-one dihydrochloride], the inhibition at 50 µM at 5-lipoxygenase (setting [2]) turned out to be 99%.

In the case of `CC(=O)Oc1ccc2c(c1)C(=O)N1CCCCC1C2(C)O` (stereo not shown) [8-acetyloxy-1,2,3,4,11,11a-hexahydro-11-hydroxy-11-methyl-6H-benzo[b]quinolizin-6-one], the inhibition at 50 µM at 5-lipoxygenase (setting [2]) was found to be 5%.

For `CC(=O)Oc1ccc2c(C)c3n(c(=O)c2c1)CCCC3` [8-acetyloxy-1,2,3,4-tetrahydro-11-methyl-6H-benzo[b]quinolizin-6-one], the inhibition at 50 µM was determined as 9% in assay [1] and 19% at 5-lipoxygenase (setting [2]).

Consider `CC(=O)Oc1ccc2c(=O)n3c(c(C)c2c1OC(C)=O)CCCC3` [9,10-bis(acetyloxy)-1,2,3,4-tetrahydro-11-methyl-6H-benzo[b]quinolizin-6-one], for which the figures for the inhibition at 50 µM (in assay [1]; on 5-lipoxygenase (setting [2])) were 84% and 74%, respectively.

Turning to `CC(=O)Oc1cc(OC(C)=O)c2c(C)c3n(c(=O)c2c1)CCCC3` [A, 8,10-bis(acetyloxy)-1,2,3,4-tetrahydro-11-methyl-6H-benzo[b]quinolizin-6-one], the inhibition at 50 µM in assay [1] was found to be 69%. On 5-lipoxygenase (setting [4]), the inhibition at 3.12 µM was 50%, the inhibition at 6.25 µM was 65%, the inhibition at 12.5 µM was found to be 62% and the inhibition at 25 µM was 93%. In addition, at 5-lipoxygenase (setting [5]), the inhibition at 3.12 µM was 57%, the inhibition at 6.25 µM was 59%, the inhibition at 12.5 µM was determined as 54% and the inhibition at 25 µM was 90%.

For the molecule `Cc1c2n(c(=O)c3cc(O)cc(O)c13)CCCC2` [C, 1,2,3,4-tetrahydro-8,10-dihydroxy-11-methyl-6H-benzo[b]quinolizin-6-one], the inhibition at 50 µM in assay [1] amounted to 61%; at 5-lipoxygenase (setting [2]), 100%.

For `CC(=O)Oc1ccc2c(C)c3n(c(=O)c2c1OC(C)=O)CCCC3` [D, 7,8-bis(acetyloxy)-1,2,3,4-tetrahydro-11-methyl-6H-benzo[b]quinolizin-6-one], the values for the inhibition at 50 µM (in assay [1]; on 5-lipoxygenase (setting [2])) were 62% and 98%, respectively.
